The text below walks through data of ChEMBL document CHEMBL5291721, “A preclinical secondary pharmacology resource illuminates target-adverse drug reaction associations of marketed drugs” (Nat Commun, 2023).

The target in series [1] is T1, 5-hydroxytryptamine receptor 3A (Homo sapiens, UniProt P46098).
T1 sequence (P46098 whole entry): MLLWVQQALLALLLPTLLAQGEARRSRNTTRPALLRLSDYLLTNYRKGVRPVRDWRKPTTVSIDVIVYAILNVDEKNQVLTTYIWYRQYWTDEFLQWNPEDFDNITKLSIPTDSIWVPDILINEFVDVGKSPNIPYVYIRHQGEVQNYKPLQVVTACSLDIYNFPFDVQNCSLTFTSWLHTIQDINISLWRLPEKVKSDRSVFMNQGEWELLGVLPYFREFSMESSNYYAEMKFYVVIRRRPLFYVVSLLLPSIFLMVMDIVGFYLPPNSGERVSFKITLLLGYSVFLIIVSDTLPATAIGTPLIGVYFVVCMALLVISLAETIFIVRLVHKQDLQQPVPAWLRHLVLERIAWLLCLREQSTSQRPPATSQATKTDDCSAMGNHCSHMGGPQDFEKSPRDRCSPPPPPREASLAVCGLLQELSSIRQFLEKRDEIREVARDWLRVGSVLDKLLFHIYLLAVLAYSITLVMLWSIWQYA
Format: functional.

Series [2] deals with Voltage-gated inwardly rectifying potassium channel KCNH2 (Homo sapiens, UniProt Q12809). Format: functional.
Voltage-gated inwardly rectifying potassium channel KCNH2, sequence (Q12809 whole entry): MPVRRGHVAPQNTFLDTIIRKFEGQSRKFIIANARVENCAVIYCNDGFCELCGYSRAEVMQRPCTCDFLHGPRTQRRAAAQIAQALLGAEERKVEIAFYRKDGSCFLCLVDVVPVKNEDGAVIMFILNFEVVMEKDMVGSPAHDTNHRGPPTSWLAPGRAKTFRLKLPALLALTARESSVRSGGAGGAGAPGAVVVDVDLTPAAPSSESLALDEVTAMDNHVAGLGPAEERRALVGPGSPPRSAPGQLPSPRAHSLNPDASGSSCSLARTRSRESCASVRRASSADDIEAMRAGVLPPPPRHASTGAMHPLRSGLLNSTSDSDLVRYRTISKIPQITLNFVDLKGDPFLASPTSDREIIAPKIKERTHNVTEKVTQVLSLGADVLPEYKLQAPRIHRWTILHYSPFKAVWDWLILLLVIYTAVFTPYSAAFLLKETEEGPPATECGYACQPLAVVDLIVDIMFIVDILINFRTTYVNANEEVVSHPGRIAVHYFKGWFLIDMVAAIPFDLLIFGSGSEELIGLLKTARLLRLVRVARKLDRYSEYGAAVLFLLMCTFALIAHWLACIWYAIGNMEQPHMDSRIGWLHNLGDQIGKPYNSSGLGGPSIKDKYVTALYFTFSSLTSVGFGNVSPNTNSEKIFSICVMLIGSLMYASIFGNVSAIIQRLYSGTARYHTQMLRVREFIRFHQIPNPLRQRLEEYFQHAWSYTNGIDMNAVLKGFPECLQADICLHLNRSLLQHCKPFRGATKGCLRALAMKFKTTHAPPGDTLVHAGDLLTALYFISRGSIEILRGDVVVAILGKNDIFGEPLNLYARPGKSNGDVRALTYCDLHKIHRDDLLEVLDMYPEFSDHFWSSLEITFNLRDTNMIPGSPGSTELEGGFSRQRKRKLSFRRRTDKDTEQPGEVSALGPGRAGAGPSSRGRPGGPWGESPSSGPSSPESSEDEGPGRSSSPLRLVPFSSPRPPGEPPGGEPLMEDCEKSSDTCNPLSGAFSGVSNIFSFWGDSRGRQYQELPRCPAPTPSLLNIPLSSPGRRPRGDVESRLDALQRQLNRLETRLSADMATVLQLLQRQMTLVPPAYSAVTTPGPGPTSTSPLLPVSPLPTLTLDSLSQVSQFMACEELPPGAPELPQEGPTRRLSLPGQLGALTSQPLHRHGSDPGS
In series [3] the target is Gamma-aminobutyric acid receptor subunit alpha-1 (Rattus norvegicus, UniProt P62813). Type of series: functional.
Gamma-aminobutyric acid receptor subunit alpha-1, sequence (P62813 whole entry): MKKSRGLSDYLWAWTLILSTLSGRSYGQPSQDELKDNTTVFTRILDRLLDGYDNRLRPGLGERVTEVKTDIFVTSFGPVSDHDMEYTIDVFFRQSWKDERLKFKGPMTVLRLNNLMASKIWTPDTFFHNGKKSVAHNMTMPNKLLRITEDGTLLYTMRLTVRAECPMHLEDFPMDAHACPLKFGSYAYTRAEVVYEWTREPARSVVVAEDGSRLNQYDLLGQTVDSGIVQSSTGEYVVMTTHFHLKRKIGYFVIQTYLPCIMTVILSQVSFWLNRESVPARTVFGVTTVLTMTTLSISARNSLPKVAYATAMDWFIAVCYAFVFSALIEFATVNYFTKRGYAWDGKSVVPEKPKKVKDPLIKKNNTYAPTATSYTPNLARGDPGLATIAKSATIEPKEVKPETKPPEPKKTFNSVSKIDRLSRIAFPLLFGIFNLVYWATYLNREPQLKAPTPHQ
The target of series [4] is T2, Alpha-1A adrenergic receptor (Homo sapiens, UniProt P35348).
T2 sequence (P35348 whole entry): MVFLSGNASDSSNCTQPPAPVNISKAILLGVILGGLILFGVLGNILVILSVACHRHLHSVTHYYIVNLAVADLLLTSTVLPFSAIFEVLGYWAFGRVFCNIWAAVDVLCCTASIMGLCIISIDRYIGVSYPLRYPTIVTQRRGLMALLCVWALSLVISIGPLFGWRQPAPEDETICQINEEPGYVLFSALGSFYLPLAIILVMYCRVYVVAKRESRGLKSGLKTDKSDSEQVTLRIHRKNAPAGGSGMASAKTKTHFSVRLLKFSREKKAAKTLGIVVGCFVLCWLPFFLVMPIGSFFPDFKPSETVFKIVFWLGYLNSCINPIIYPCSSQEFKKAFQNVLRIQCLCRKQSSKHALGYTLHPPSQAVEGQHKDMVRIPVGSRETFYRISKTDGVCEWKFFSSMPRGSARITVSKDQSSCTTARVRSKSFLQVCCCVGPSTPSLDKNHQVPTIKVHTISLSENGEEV
Type of series: functional, cell-based.

Series [5] concerns the target T3, 5-hydroxytryptamine receptor 1A (Homo sapiens, UniProt P08908).
T3 sequence (P08908 whole entry): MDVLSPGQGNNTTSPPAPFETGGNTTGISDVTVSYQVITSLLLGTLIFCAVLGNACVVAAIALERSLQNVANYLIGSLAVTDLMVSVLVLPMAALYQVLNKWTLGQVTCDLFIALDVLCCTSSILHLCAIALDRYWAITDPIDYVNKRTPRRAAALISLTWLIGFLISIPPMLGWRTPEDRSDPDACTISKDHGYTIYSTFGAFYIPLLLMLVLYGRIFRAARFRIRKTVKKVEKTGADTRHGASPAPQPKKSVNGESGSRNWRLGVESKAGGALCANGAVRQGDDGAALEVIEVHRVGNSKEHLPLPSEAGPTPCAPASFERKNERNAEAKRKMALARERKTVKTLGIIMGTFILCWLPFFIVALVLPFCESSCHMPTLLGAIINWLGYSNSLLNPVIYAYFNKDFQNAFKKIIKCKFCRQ
Format: functional, cell-based.

For series [6], the target named is T2, Alpha-1A adrenergic receptor. Type of series: functional, cell-based. This is another data set of the same source.
A further series addresses Motilin receptor (Homo sapiens, UniProt O43193).
In series [7] the target is T4, Alpha-2A adrenergic receptor (Homo sapiens, UniProt P08913).
T4 sequence (P08913 whole entry): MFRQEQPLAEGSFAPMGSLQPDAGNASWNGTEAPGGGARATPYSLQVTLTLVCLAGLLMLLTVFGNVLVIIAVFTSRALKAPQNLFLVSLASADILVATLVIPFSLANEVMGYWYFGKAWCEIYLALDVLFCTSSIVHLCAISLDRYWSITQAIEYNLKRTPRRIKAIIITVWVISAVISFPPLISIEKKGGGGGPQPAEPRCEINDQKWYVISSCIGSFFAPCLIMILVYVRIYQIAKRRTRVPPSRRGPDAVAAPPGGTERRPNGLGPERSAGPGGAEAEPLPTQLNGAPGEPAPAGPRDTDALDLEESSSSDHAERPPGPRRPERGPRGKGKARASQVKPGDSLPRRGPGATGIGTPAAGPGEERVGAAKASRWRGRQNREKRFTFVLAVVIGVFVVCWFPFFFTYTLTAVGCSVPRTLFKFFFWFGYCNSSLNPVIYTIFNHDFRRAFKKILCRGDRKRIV
Format: functional, cell-based.

For series [8], the target named is Kappa-type opioid receptor (Homo sapiens, UniProt P41145).
Kappa-type opioid receptor, sequence (P41145 whole entry): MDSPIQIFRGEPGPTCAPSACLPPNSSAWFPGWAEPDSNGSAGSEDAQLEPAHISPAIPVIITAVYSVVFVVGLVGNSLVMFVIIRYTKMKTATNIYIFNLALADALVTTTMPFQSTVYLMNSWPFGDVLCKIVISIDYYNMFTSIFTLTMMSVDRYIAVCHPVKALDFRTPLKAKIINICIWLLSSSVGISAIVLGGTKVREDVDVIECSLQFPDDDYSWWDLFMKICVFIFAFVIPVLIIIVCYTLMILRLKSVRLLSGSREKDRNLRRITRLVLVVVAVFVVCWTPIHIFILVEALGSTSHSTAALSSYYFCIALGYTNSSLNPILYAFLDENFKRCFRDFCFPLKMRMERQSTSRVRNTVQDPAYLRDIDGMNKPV
The target of the next series is T5, Adenosine receptor A3 (Homo sapiens, UniProt P0DMS8).
T5 sequence (P0DMS8 whole entry): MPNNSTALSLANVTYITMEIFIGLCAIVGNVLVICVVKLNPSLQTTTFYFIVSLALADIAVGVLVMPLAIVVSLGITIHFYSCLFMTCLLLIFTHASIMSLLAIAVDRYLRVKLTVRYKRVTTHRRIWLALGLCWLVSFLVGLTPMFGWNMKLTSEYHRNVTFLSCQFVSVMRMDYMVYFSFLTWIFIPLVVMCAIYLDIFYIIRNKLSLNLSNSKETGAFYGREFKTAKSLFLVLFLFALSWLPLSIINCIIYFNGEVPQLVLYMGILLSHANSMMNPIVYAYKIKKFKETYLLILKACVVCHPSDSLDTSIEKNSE
Also: assay procedure not described here.

Motilin receptor, sequence (O43193 whole entry): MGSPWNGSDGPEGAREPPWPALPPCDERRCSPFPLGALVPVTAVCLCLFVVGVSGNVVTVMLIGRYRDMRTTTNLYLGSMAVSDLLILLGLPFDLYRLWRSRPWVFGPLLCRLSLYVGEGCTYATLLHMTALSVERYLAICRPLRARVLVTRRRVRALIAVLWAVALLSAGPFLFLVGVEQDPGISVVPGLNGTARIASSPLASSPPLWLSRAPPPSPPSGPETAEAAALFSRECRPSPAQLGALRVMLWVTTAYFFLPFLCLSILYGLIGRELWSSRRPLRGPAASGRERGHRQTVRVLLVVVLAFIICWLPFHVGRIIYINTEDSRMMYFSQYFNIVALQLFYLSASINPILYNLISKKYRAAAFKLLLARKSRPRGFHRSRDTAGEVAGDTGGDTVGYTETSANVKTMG

As usually defined, the AC50 is the midpoint of the concentration-response curve, whichever way the signal moves. Regarding `CN1CCN(C(=O)OC2c3nccnc3C(=O)N2c2ccc(Cl)cn2)CC1` (stereo not given) [ZOPICLONE], the AC50 in series [1] was > 10 µM; in series [2] (read-out: AC50) it was > 30 µM; in series [3], 0.093 µM; in [4], > 30 µM; in series [5], > 10 µM; in series [6] it was > 30 µM. The AC50 on Motilin receptor was > 30 µM; in [7] it was > 10 µM; in series [8], > 10 µM; at Adenosine receptor A3, 18.3 µM.
TOCOFERSOLAN: the AC50 was > 30 µM in series [1]; > 30 µM in [2] (human, cellular components); > 30 µM in series [3]; > 30 µM in series [4]; > 30 µM in series [5]; > 30 µM in series [6]. Besides, the AC50 (at Motilin receptor; in series [7]; in [8]; on Adenosine receptor A3) was > 30 µM throughout.
